Results published in article PMC11111955, “Safety and efficacy evaluation of halicin as an effective drug for inhibiting intestinal infections” (Frontiers in Pharmacology, 2024).

Tests used:
WP2uvApKM101 = test: Ames test; format: cell-based, Escherichia coli
Procedure: (§1) The experiments were performed in triplicate.

TA97a = test: Ames test; format: cell-based, Salmonella typhimurium; settings: -S9, 50 μg/plate
Procedure: as §1

TA98 = test: Ames test; format: cell-based, Salmonella typhimurium; settings: TA98, -S9, 50 μg/plate
Procedure: as §1

TA100 = test: Ames test; format: cell-based, Salmonella typhimurium; settings: TA100, -S9, 1 μg/plate
Procedure: as §1

Mouse spermatozoa = settings: positive control group, 40 mg/kg cyclophosphamide
mouse bone marrow cells = settings: positive control group, 40 mg/kg cyclophosphamide
[1] = system: bone marrow polychromatic erythrocytes; test: Micronucleus experiment of mammalian bone marrow cells; settings: positive control group, 40 mg/kg cyclophosphamide

For `Nc1ccc2cc3ccccc3cc2c1` [2-AT, 2-Aminoanthracene], the “Ames test bacterial counts” value (WP2uvApKM101; WP2uvApKM101, +S9, 10 μg/plate) was 546 ± 26.9.

For `CN(C)c1ccc(N=NS(=O)(=O)O)cc1` [DDT, fenaminosulf], the “Ames test bacterial counts” value (TA97a) was 3,451 ± 53.7 and the “Ames test bacterial counts” value (TA98) was 2,985 ± 76.4.

`COS(C)(=O)=O` [MSM, methyl methanesulfonate] was tested, and the “Ames test bacterial counts” value (TA100) was 3,042 ± 69.3 and the “Ames test bacterial counts” value (WP2uvApKM101; WP2uvApKM101, -S9, 1 μg/plate) was 926 ± 45.3.

In the case of `O=P1(N(CCCl)CCCl)NCCCO1` (centres unmarked) [Positive, cyclophosphamide], the “Abnormal ratio (%)” value (Mouse spermatozoa; male ICR mice) is reported as 8.34 ± 0.47%, the “Number of sperm abnormality” value (Mouse spermatozoa; male ICR mice, of 5 × 1,000 sperms observed) is reported as 417 and the “Abnormal sperms counted ratio (%): Amorphous” value (Mouse spermatozoa) is reported as 48.33 ± 4.33%. For the same molecule, the “Abnormal sperms counted ratio (%): Banana shape” value (Mouse spermatozoa) was 10.58 ± 1.46%, the “Abnormal sperms counted ratio (%): Kinks tail” value (Mouse spermatozoa) was 5.76 ± 0.94% and the “Abnormal sperms counted ratio (%): Large round head” value (Mouse spermatozoa) was 9.37 ± 1.03%. The “Abnormal sperms counted ratio (%): No hook” value (Mouse spermatozoa) was 10.07 ± 1.23%, the “Abnormal sperms counted ratio (%): Two head” value (Mouse spermatozoa) was 5.52 ± 1.36% and the “Abnormal sperms counted ratio (%): Two tail” value (Mouse spermatozoa) was 4.84 ± 1.99%. For the same molecule, the “Chromosome aberration (%)” value (mouse bone marrow cells) was 18.6 ± 7.67%, the “Number of cells with chromosome aberration” value (mouse bone marrow cells; of 5 × 100 cells at metaphase) was 93 and the “PCE micronucleus (‰)” value ([1]; Female mice) was 18.8 ± 1.9 ‰. The PCE/RBC ([1]; Female mice) was 0.5 ± 0.04, the “PCE micronucleus (‰)” value ([1]; Male mice) was 18.8 ± 2.6 ‰ and the PCE/RBC ([1]; Male mice) was 0.51 ± 0.09.
